Data from US20090326003A1, “PYRAZOLO (3, 4-B) PYRIDINE DERIVATIVES AS PDE4 INHIBITORS” (priority 2006, published 2009).

Tested on: TNF-α production in human PBMC (peripheral blood mononuclear cells)
Test: Inhibition of TNF-alpha production in human PBMC (MSD technology)
Assay type: cell-based
Settings: inhibition of LPS-stimulated TNF-α production in human PBMC; measured and/or mean; read-out: PBMC pIC50 (MSD assay) (converted)
Experimental: A 96-well plate (96 MicroWell™ Plates Nunclon™Δ-High Flange Design, Fisher Scientific UK, Bishop Meadow Road, Loughborough LE 11 5 RG, Leicestershire, UK) is prepared by initially adding to column 1 ca. 10 mM of test compound dissolved in DMSO. […] The compound is further diluted with DMSO into columns 2 to 9 by 8 successive 3fold dilutions using the Biomek® FX Laboratory Automation Workstation (Beckman Coulter, Inc., 4300 N. Harbor Boulevard, P.O. Box 3100, Fullerton, Calif. 92834-3100 USA). Column 10 is used as a DMSO negative control (High Signal, 0% response), whilst column 11, which contains 10 mM of the PDE4 inhibitor roflumilast, is used as a positive control (Low Signal, 100% response). About 1 μl (about 1 ul) of compound is transferred to the compound plate using the Biomek® FX.
PBMC cells (peripheral blood mononuclear cells) are prepared from heparinised human blood (using 1% v/v Heparin Sodium 10001 U/ml Endotoxin Free, Leo Laboratories Ltd., Cashel Road, Dublin 12. Ireland, Cat No: PL0043/0149) from normal volunteers using the Accuspin™ System-Histopaque®-1077 essentially (Sigma-Aldrich Company Ltd., The Old Brickyard New Rd, Gillingham Dorset SP8 4XT). About 20 ml of blood is overlaid onto 15 ml Histopaque® in Accuspin™ tubes. The tube is then centrifuged at about 800 g for ca. 20 minutes. The cells are collected from the interface, washed by centrifugation (ca. 1300 g, ca. 10 minutes) and resuspended in RPMI1640 medium (Low endotoxin RPMI1640 medium, Cat No: 31870-025, Invitrogen Corporation Invitrogen Ltd, 3 Fountain Drive, Inchinnan Business Park, Paisley PA4 9RF, UK) containing 10% foetal calf serum, 1% L-glutamine (Invitrogen Corporation, Cat No: 25030024) and 1% penicillin/streptomycin (Invitrogen Corporation, Cat No: 15140-122). Viable cells are counted by trypan blue staining and diluted to 1×10^6 viable cells/ml. About 50 μl (about 50 ul) of diluted cells and about 75 μl (about 75 ul) of LPS (ca. 1 ng/ml final; Sigma Cat No: L-6386) are added to the compound plate, which is then incubated at 37° C., 5% CO2, for 20 hours.
The supernatant is removed and the concentrations of TNF-α are determined by electrochemiluminescence assay using the Meso Scale Discovery (MSD) technology (Meso Scale Discovery, 9238 Gaither Road, Gaithersburg, Md. 20877, USA). See the “TNF-α (TNF-alpha) MSD Assay” described below for typical details.
Using the Biomek FX, 25 μl (25 ul) of MSD Human Serum Cytokine Assay Diluent (Meso Scale Discovery, 9238 Gaither Road, Gaithersburg, Md. 20877) is added to a 96-well High-Bind MSD plate pre-coated with anti-hTNF alpha capture antibody (MA6000) and then incubated for 24 hours at 4° C. to prevent non-specific binding. […]
For the PBMC assay, about 20 μl (ul) of diluted sulfo-TAG antibody (ca. 1 μg/ml final) is added to each well, and the plates/wells are shaken at room temperature for 2 hours. Finally, about 90 μl (ul) of MSD Read Buffer P (diluted to 2.5 times with distilled water) is added and the plates are read on a MSD Sector 6000.
Data analysis is performed with ActivityBase/XC50 module (ID Business Solutions Ltd., 2 Occam Court, Surrey Research Park, Guildford, Surrey, GU2 7QB UK). Data are normalized and expressed as % inhibition using the formula 100*((U-C1)/(C2-C1)) where U is the unknown value, C1 is the average of the high signal (0%) control wells (column 10), and C2 is the average of the low signal (100%) control wells (column 11). […]

Row | SMILES | IC50 [nM]
1 | CCc1nc2c(cnn2CC)c(NC2CCOCC2)c1CNC(=O)c1ccc(C(=O)NCc2c(CC)nc3c(cnn3CC)c2NC2CCOCC2)o1 [Example 35, N,N′-bis{[1,6-diethyl-4-(tetrahydro-2H-pyran-4-ylamino)-1H-pyrazolo[3,4-b]pyridin-5-yl]methyl}-2,5furandicarboxamide] | ~0.1
2 | CCn1ncc2c(NC3CCOCC3)c(CNC(=O)c3cccc(-c4cccc(C(=O)NCc5c(C)nc6c(cnn6CC)c5NC5CCOCC5)c4)c3)c(C)nc21 [Example 29, N,N′-bis{[1-ethyl-6-methyl-4-(tetrahydro-2H-pyran-4-ylamino)-1H-pyrazolo[3,4-b]pyridin-5-yl]methyl}-3,3′-biphenyldicarboxamide] | ~0.794
3 | CCc1nc2c(cnn2CC)c(NC2CCOCC2)c1CNC(=O)c1ccc(-c2ccc(C(=O)NCc3c(CC)nc4c(cnn4CC)c3NC3CCOCC3)cc2)cc1 [Example 23, N,N′-bis{[1,6-diethyl-4-(tetrahydro-2H-pyran-4-ylamino)-1H-pyrazolo[3,4-b]pyridin-5-yl]methyl}-4,4′-biphenyldicarboxamide] | ~0.126
